# Laboratory results reported in patent publication US6521644B1, “Compositions for promoting growth” (Ferring BV, priority 1999, dated 2003).
# System: GH surge induced by GHRH
# Assay: Effect on circulating growth hormone: GH surge induced by i.v. GHRH in rats, plasma GH by RIA
# Format: in vivo, male Sprague-Dawley rats
# Experimental: Experiments were conducted in male Sprague-Dawley rats (200-220 g) obtained from lffa Credo (L'Arbresle, France), fed with standard laboratory chow ad libitum and kept on a 12 h light-dark in a temperature- and humidity-controlled room.
# Rats were weighed and anesthetized with Narcorene. The ventral side of the throat was shaved and an incision was made down the center of the throat. The right jugular vein was exposed and cannulated using a polythene tubing (OD 1.0 mm) connected to a medical grade silicone tubing (OD 0.94 mm) (silicone side in the jugular vein). The tubing was secured and the polythene side was externalized through an incision made on the dorsal side of the neck. The catheter was rinsed with 300 μL of a Ringer solution containing 0.1% heparin. Rats were allowed to recover for at least 24 hours in individual cages with food and water available ad libitum.
# The compound of Example 1B (3 mg/kg, i.v.) or its vehicle was injected 15 minutes before an injection of GHRH (0.1 μg/kg, i.v.). Blood samples (200-250 μL) were removed immediately before inhibitor and GHRH injections, and then 5, 10, 15, 20, 30 and 60 min post-GHRH. Each blood sample was replaced with an equivalent volume of a Ringer solution containing 0.1% heparin. Plasma was extracted and stored at −20° C. until determinations of GH by RIA.
structure (smiles),measurement,setting,value
"CC(C)(C)[C@H](N)C(=O)N1CCC[C@H]1C#N [Example 1B, (2S)-N-((2′S)-2′-amino-3′,3′-dimethylbutanoyl)pyrrolidine-2-carbonitrile]",Effect on the GH surge induced by the administration of GHRH,"3 mg/kg i.v. 15 min before GHRH 0.1 μg/kg i.v., rats",potentiated the GH surge
same,"mean GH, Time 5 min","5 min post-GHRH 0.1 μg/kg i.v., inhibitor 3 mg/kg i.v. 15 min before GHRH, mean of 6 rats ± s.e.m.",483.0 ± 91.0 ng/mL
same,"mean GH, Time 10 min","10 min post-GHRH 0.1 μg/kg i.v., inhibitor 3 mg/kg i.v. 15 min before GHRH, mean of 6 rats ± s.e.m.",309.5 ± 55.40 ng/mL
same,"mean GH, Time 0 min","15 min after inhibitor 3 mg/kg i.v., immediately before GHRH 0.1 μg/kg i.v., mean of 6 rats ± s.e.m.",33.4 ± 6.9 ng/mL
same,"mean GH, Time 15 min","15 min post-GHRH 0.1 μg/kg i.v., inhibitor 3 mg/kg i.v. 15 min before GHRH, mean of 6 rats ± s.e.m.",164.3 ± 28.3 ng/mL
same,"mean GH, Time 20 min","20 min post-GHRH 0.1 μg/kg i.v., inhibitor 3 mg/kg i.v. 15 min before GHRH, mean of 6 rats ± s.e.m.",103.1 ± 18.1 ng/mL
same,"mean GH, Time 30 min","30 min post-GHRH 0.1 μg/kg i.v., inhibitor 3 mg/kg i.v. 15 min before GHRH, mean of 6 rats ± s.e.m.",52.1 ± 7.7 ng/mL
same,"mean GH, Time 60 min","60 min post-GHRH 0.1 μg/kg i.v., inhibitor 3 mg/kg i.v. 15 min before GHRH, mean of 6 rats ± s.e.m.",26.3 ± 3.3 ng/mL
same,GH AUC,"AUC column of Table 1, inhibitor 3 mg/kg i.v. 15 min before GHRH 0.1 μg/kg i.v., 6 rats, ± s.e.m.",5070 ± 837 ng·min/mL
same,Integrated GH response,"inhibitor-treated group, 3 mg/kg i.v. 15 min before GHRH 0.1 μg/kg i.v., p<0.05 vs vehicle (720.2±217.0)",5072.8±837.3 ng/ml.60 min
same,"mean GH, Time -15 min","plasma GH immediately before inhibitor injection (3 mg/kg i.v.), mean of 6 rats ± s.e.m.",50.5 ± 16.4 ng/mL
